Results: ChEMBL document CHEMBL5050861 (2021)
Converted amounts (≈) assume the structure as drawn.

Legend:
[1] = Kinetic aqueous solubility of the compound; type: physicochemical; settings: buffer; read-out: Kinetic_solubility
[2] = Stability of compound in rat microsomes assessed as half-life; type: ADME, Microsome
[3] = Inhibition of recombinant mouse GALK1 using ATP as substrate incubated for 1 hr and measured by Kinase-Glo assay

Structure (SMILES) | solubility kinetic [1] | half-life [2] | IC50 ([3]; read-out: IC50) | IC50 [3]
CCn1nc(C)c(CNC(=O)C2=C(C)NC(Nc3nc4ccc(F)c(N)c4o3)=NC2c2ccc(C)cc2Cl)c1F (configuration not stated) | 1.53 µg/mL (≈ 2.69 µM) | 3.55 min | 2.17 µM | –
CC1=C(C(=O)Nc2nncs2)C(c2n[nH]cc2Br)N=C(Nc2nc3ccccc3o2)N1 (configuration not stated) | 11.4 µg/mL (≈ 22.8 µM) | > 30 min | 19.3 µM | –
CC1=C(C(=O)Nc2cc(C(=O)O)ccc2C)C(c2ccccc2Cl)N=C(Nc2nc3ccc(F)cc3o2)N1 (configuration not stated) | – | – | 17.2 µM | –
CC1=C(C(=O)Nc2nncs2)C(c2ccccc2Br)N=C(Nc2nc3ccccc3o2)N1 (configuration not stated) | < 1 µg/mL | > 30 min | 9.68 µM | –
CC1=C(C(=O)Nc2cc(C(=O)O)ccn2)C(c2ccc(N3CCOCC3)cc2Cl)N=C(Nc2nc3ccc(F)cc3o2)N1 (configuration not stated) | > 89 µg/mL | > 30 min | 3.85 µM | –
CC1=C(C(=O)Nc2cc(C(=O)O)ccc2F)C(c2ccccc2Cl)N=C(Nc2nc3ccc(F)cc3o2)N1 (configuration not stated) | 35.7 µg/mL (≈ 66.4 µM) | > 30 min | 6.85 µM | –
CC1=C(C(=O)Nc2nncs2)C(c2ccncc2Br)N=C(Nc2nc3ccccc3o2)N1 (configuration not stated) | 6.5 µg/mL (≈ 12.7 µM) | > 30 min | 19.3 µM | –
COc1ccc(Cl)c(C2N=C(Nc3nc4ccccc4o3)NC(C)=C2C(=O)Nc2nncs2)c1 (configuration not stated) | < 1 µg/mL | > 30 min | 17.2 µM | –
CC1=C(C(=O)Nc2ccc(CO)cn2)C(c2ccccc2Cl)N=C(Nc2nc3ccc(F)cc3o2)N1 (configuration not stated) | < 1 µg/mL | > 30 min | 19.3 µM | –
CC1=C(C(=O)Nc2nnc(-c3cccnc3)s2)C(c2ccccc2Cl)N=C(Nc2nc3cc(N)ccc3o2)N1 (configuration not stated) | 1.8 µg/mL (≈ 3.23 µM) | > 30 min | – | –
CC1=C(C(=O)Nc2cc(N(C)C)ccn2)C(c2ccc(C)cc2Cl)N=C(Nc2nc3cccc(N)c3o2)N1 (configuration not stated) | 4.6 µg/mL (≈ 8.66 µM) | 11.7 min | 15.3 µM | –
CC1=C(C(=O)Nc2nnc(-c3ccncc3)s2)C(c2ccccc2Cl)N=C(Nc2nc3ccccc3o2)N1 (configuration not stated) | < 1 µg/mL | > 30 min | 19.3 µM | –
CC1=C(C(=O)Nc2nncs2)C(c2cc(Cl)ccc2Cl)N=C(Nc2nc3ccccc3o2)N1 (configuration not stated) | < 1 µg/mL | > 30 min | 10.9 µM | –
CC1=C(C(=O)Nc2cc(C(=O)O)ccn2)C(c2cc(C(=O)O)ccc2Cl)N=C(Nc2nc3ccc(F)cc3o2)N1 (configuration not stated) | > 83 µg/mL | > 30 min | 12.2 µM | –
CC1=C(C(=O)NCc2cnn(C)c2)[C@@H](c2ccc(C)cc2Cl)N=C(Nc2nc3cccc(N)c3o2)N1 | 21.9 µg/mL (≈ 43.4 µM) | 7.87 min | 30.6 µM | –
CC1=C(C(=O)Nc2nncs2)C(c2n[nH]cc2Cl)N=C(Nc2nc3ccccc3o2)N1 (configuration not stated) | 34.6 µg/mL (≈ 75.9 µM) | > 30 min | 54.4 µM | –
CC1=C(C(=O)Nc2ccc(C(N)=O)cn2)C(c2ccccc2Cl)N=C(Nc2nc3ccc(F)cc3o2)N1 (configuration not stated) | – | – | 6.85 µM | –
CC1=C(C(=O)NCc2cnn(Cc3ccccc3)c2)C(c2ccc(C)cc2Cl)N=C(Nc2nc3ccc(F)cc3o2)N1 (configuration not stated) | < 1 µg/mL | 2.74 min | 5.44 µM | –
CCn1cc(CNC(=O)C2=C(C)NC(Nc3nc4cccc(N)c4o3)=NC2c2ccc(Cl)cc2Cl)cn1 (configuration not stated) | 4.6 µg/mL (≈ 8.53 µM) | 14.1 min | 8.63 µM | –
CC1=C(C(=O)Nc2nncs2)C(c2ncccc2Br)N=C(Nc2nc3ccccc3o2)N1 (configuration not stated) | 3 µg/mL (≈ 5.87 µM) | > 30 min | 6.85 µM | –
CC1=C(C(=O)Nc2nncs2)C(c2ccccc2C(F)(F)F)N=C(Nc2nc3ccccc3o2)N1 (configuration not stated) | < 1 µg/mL | > 30 min | 12.2 µM | –

Structure (SMILES) | solubility kinetic [1] | half-life [2] | IC50 ([3]; read-out: IC50) | IC50 [3]
CC1=C(C(=O)NCc2cnn(Cc3ccccc3)c2)C(c2ccc(C)cc2Cl)N=C(Nc2nc3cccc(N)c3o2)N1 (configuration not stated) | < 1 µg/mL | 6.73 min | 5.44 µM | –
COc1ccc([C@H]2N=C(Nc3nc4ccc(F)cc4o3)NC(C)=C2C(=O)Nc2cc(C(=O)O)ccn2)c(Cl)c1 | – | – | 19.3 µM | –
CCn1ncc(CNC(=O)C2=C(C)NC(Nc3nc4ccc(F)c(N)c4o3)=NC2c2ccc(C)cc2Cl)c1F (configuration not stated) | < 1 µg/mL | 7.04 min | 1.09 µM | –
CC1=C(C(=O)NCc2c(C)nn(C)c2C)C(c2ccc(C)cc2Cl)N=C(Nc2nc3cccc(N)c3o2)N1 (configuration not stated) | 12 µg/mL (≈ 22.5 µM) | 2.37 min | 6.85 µM | –
CC1=C(C(=O)NCc2cnn(C)c2)[C@H](c2ccc(C)cc2Cl)N=C(Nc2nc3cccc(N)c3o2)N1 | 17.1 µg/mL (≈ 33.9 µM) | 18.9 min | 1.58 µM | –
CC1=C(C(=O)Nc2cc(CO)ccn2)C(c2ccccc2Cl)N=C(Nc2nc3ccc(F)cc3o2)N1 (configuration not stated) | < 1 µg/mL | > 30 min | 10.9 µM | –
COc1ccc(C2N=C(Nc3nc4cccc(N)c4o3)NC(C)=C2C(=O)Nc2cc(C(=O)O)ccn2)c(Cl)c1 (racemic) | > 81 µg/mL | > 30 min | > 1.93 µM | –
CC1=C(C(=O)NCc2cnn(C)c2C)C(c2ccc(C)cc2Cl)N=C(Nc2nc3ccc(F)cc3o2)N1 (configuration not stated) | < 1 µg/mL | 2.99 min | 3.43 µM | –
CNC(=O)C1CC(=O)C2=C(C1)NC(Nc1nc3ccccc3o1)=NC2c1ccccc1Cl (configuration not stated) | < 1 µg/mL | > 30 min | 6.85 µM | –
O=C(Nc1nncs1)C1=C(C(F)(F)F)NC(Nc2nc3ccccc3o2)=NC1c1ccccc1Cl (configuration not stated) | 21.9 µg/mL (≈ 42.1 µM) | > 30 min | 17.2 µM | –
CN(C)C(=O)C1CC(=O)C2=C(C1)NC(Nc1nc3ccccc3o1)=NC2c1ccccc1Cl (configuration not stated) | 10.8 µg/mL (≈ 23.4 µM) | 20.8 min | 4.32 µM | –
CC1=C(C(=O)Nc2ncc(CO)s2)C(c2ccccc2Cl)N=C(Nc2nc3ccccc3o2)N1 (configuration not stated) | < 1 µg/mL | > 30 min | 19.3 µM | –
CC1=C(C(=O)Nc2cc(C(=O)O)ccn2)C(c2ccccc2Cl)N=C(Nc2nc3cccc([N+](=O)[O-])c3o2)N1 (configuration not stated) | 7.3 µg/mL (≈ 13.3 µM) | > 30 min | 38.5 µM | –
CCn1cc(CNC(=O)C2=C(C)NC(Nc3nc4ccc(F)c(N)c4o3)=N[C@H]2c2ccc(C)cc2Cl)cn1 | 22.1 µg/mL (≈ 41.1 µM) | – | 0.97 µM | –
CCn1cc(CNC(=O)C2=C(C)NC(Nc3nc4cccc(N)c4o3)=NC2c2ccc(F)cc2Cl)cn1 (configuration not stated) | – | 18.8 min | 7.69 µM | –
CC1=C(C(=O)Nc2ccc(-n3cncn3)cc2)C(c2ccccc2Cl)N=C(Nc2nc3ccccc3o2)N1 (configuration not stated) | – | – | 34.4 µM | –
CC1=C(C(=O)Nc2ccc(-c3cn[nH]c3)cc2)C(c2ccccc2Cl)N=C(Nc2nc3ccccc3o2)N1 (configuration not stated) | – | – | 12.2 µM | –
CC1=C(C(=O)NCc2cn(C)cn2)C(c2ccccc2Cl)N=C(Nc2nc3ccc(F)cc3o2)N1 (configuration not stated) | – | – | 19.3 µM | –
CC1=C(C(=O)Nc2cc(C(=O)O)ccn2)C(c2ccc(C)cc2Cl)N=C(Nc2ncc(-c3ccccc3)o2)N1 (configuration not stated) | 42.2 µg/mL (≈ 77.7 µM) | > 30 min | – | –
COc1ccc([C@@H]2N=C(Nc3nc4ccc(F)cc4o3)NC(C)=C2C(=O)Nc2cc(C(=O)O)ccn2)c(Cl)c1 | – | – | 1.99 µM | –

The remaining lines, values ahead:

solubility kinetic [1] | half-life [2] | IC50 ([3]; read-out: IC50) | IC50 [3] | Structure (SMILES)
25.4 µg/mL (≈ 48.9 µM) | > 30 min | 10.9 µM | – | CC1=C(C(=O)Nc2cc(C(=O)O)ccc2F)C(c2ccccc2Cl)N=C(Nc2nc3ccccc3o2)N1 (configuration not stated)
< 1 µg/mL | > 30 min | 9.68 µM | – | CC1=C(C(=O)Nc2cc(CO)ccn2)C(c2ccccc2Cl)N=C(Nc2nc3ccccc3o2)N1 (configuration not stated)
< 1 µg/mL | > 30 min | 12.2 µM | – | CC1=C(C(=O)Nc2ccc(F)cc2)C(c2ccccc2Cl)N=C(Nc2nc3ccccc3o2)N1 (configuration not stated)
< 1 µg/mL | 17.9 min | 17.2 µM | – | CC1=C(C(=O)Nc2ccccc2O)C(c2ccccc2Cl)N=C(Nc2nc3ccccc3o2)N1 (configuration not stated)
37.5 µg/mL (≈ 77 µM) | > 30 min | 6.85 µM | – | CC1=C(C(=O)Nc2cccc(CN)c2)C(c2ccccc2Cl)N=C(Nc2nc3ccccc3o2)N1 (configuration not stated)
< 1 µg/mL | > 30 min | 12.2 µM | – | COC(=O)c1cccc(NC(=O)C2=C(C)NC(Nc3nc4ccccc4o3)=NC2c2ccccc2Cl)n1 (configuration not stated)
< 1 µg/mL | 1.74 min | 4.32 µM | – | COC(=O)c1ccccc1CNC(=O)C1=C(C)NC(Nc2nc3ccccc3o2)=NC1c1ccccc1Cl (configuration not stated)
< 1 µg/mL | > 30 min | – | – | CC1=C(C(=O)Nc2ccc(CO)cc2)C(c2ccccc2Cl)N=C(Nc2nc3ccccc3o2)N1 (configuration not stated)
– | – | 19.3 µM | – | CC1=C(C(=O)Nc2nc(C(=O)O)cs2)C(c2ccccc2Cl)N=C(Nc2nc3ccccc3o2)N1 (configuration not stated)
60.3 µg/mL (≈ 120 µM) | > 30 min | – | – | CC1=C(C(=O)Nc2cncc(C(=O)O)c2)C(c2ccccc2Cl)N=C(Nc2nc3ccccc3o2)N1 (configuration not stated)
< 1 µg/mL | 4.68 min | 6.85 µM | – | COC(=O)c1ccc(NC(=O)C2=C(C)NC(Nc3nc4ccccc4o3)=NC2c2ccccc2Cl)cn1 (configuration not stated)
< 1 µg/mL | > 30 min | 10.9 µM | – | CC1=C(C(=O)Nc2ccccn2)C(c2ccccc2Cl)N=C(Nc2nc3ccccc3o2)N1 (configuration not stated)
< 1 µg/mL | 3.42 min | 7.69 µM | – | COC(=O)c1cccc(CNC(=O)C2=C(C)NC(Nc3nc4ccccc4o3)=NC2c2ccccc2Cl)c1 (configuration not stated)
< 1 µg/mL | 28.7 min | – | Not Active | CC1=C(C(=O)Nc2ccccc2Cl)C(c2ccccc2Cl)N=C(Nc2nc3ccccc3o2)N1 (configuration not stated)
– | 26.6 min | – | – | CC1=C(C(=O)Nc2cccc(CCO)c2)C(c2ccccc2Cl)N=C(Nc2nc3ccccc3o2)N1 (configuration not stated)
< 1 µg/mL | > 30 min | 7.69 µM | – | CC1=C(C(=O)Nc2ccc(CO)nc2)C(c2ccccc2Cl)N=C(Nc2nc3ccccc3o2)N1 (configuration not stated)
< 1 µg/mL | > 30 min | 10.9 µM | – | CNC(=O)c1ccnc(NC(=O)C2=C(C)NC(Nc3nc4ccccc4o3)=NC2c2ccccc2Cl)c1 (configuration not stated)
< 1 µg/mL | > 30 min | 13.7 µM | – | COC(=O)c1csc(NC(=O)C2=C(C)NC(Nc3nc4ccccc4o3)=NC2c2ccccc2Cl)n1 (configuration not stated)
< 1 µg/mL | 8.09 min | – | – | COC(=O)Cc1nnc(NC(=O)C2=C(C)NC(Nc3nc4ccccc4o3)=NC2c2ccccc2Cl)s1 (configuration not stated)
< 1 µg/mL | > 30 min | – | – | COC(=O)c1cncc(NC(=O)C2=C(C)NC(Nc3nc4ccccc4o3)=NC2c2ccccc2Cl)c1 (configuration not stated)
